Measurements reported in US9485988B2, “Turfgrass fungicide formulation with pigment” (Suncor Energy Inc., priority 2008, dated 2016).

Experiments:
Format in all cases: in vivo
[1] = system: fall armyworms (Spodoptera frugiperda); assay: Example 29: survival of fall armyworm larvae on treated grass clippings; conditions: 5 larvae/container, 4 days at 25° C.
Description: The efficacy of an embodiment of the 2-pack formulation against different larval stages of fall armyworms (Spodoptera frugiperda) was determined under laboratory conditions. Embodiments of the invention were compared to a conventional pesticide Cyfluthrin.
• 1) Larvae were obtained from Benzon Research Inc. • 2) 5 larvae/container and 3 containers=1 replication • 3) Treatments=1) Control • 2) 2-pack formulation at 5% dilution • 3) Cyfluthrin (insecticide), Al=0.75%, 3 fl oz/gal H2O (22 mL/L) • 4) Container=760 ml plastic bowl with lid containing moist filter paper on bottom and grass clippings • 5) St. Augustinegrass clippings dipped into respective fungicide treatment, drained to dry and put into container • 6) Hold 4 days at 25° C. and measure survival • 7) 7 replications of small larvae (2-10 mm) tested • 8) 6 replications of medium larvae (11-20 mm) tested • 9) 6 replications of large larvae (21-30 mm) tested • 10) Statistical analysis=Least Significant Difference (LSD) test Results: […]

tropical sod webworms = assay: Example 29: survival of tropical sod webworm larvae
Description: • 1) Larvae were obtained from Benzon Research Inc. • 2) 5 larvae/container and 3 containers=1 replication • 3) Treatments=1) Control • 2) 2-pack formulation at 5% dilution • 3) Cyfluthrin (insecticide), Al=0.75%, 3 fl oz/gal H2O (22 mL/L) • 4) Container=760 ml plastic bowl with lid containing moist filter paper on bottom and grass clippings • 5) St. Augustinegrass clippings dipped into respective fungicide treatment, drained to dry and put into container • 6) Hold 4 days at 25° C. and measure survival • 7) 7 replications of small larvae (2-10 mm) tested • 8) 6 replications of medium larvae (11-20 mm) tested • 9) 6 replications of large larvae (21-30 mm) tested • 10) Statistical analysis=Least Significant Difference (LSD) test Results:
Similar testing was conducted to determine the efficacy of embodiments of the 2-pack formulation to kill all sizes larvae (small, medium and large) of tropical sod webworms.

[2] = Synergy of the formulations when mixed with conventional chemical fungicides; conditions: contact fungicide

SMILES	Mean survival, Large larvae ([1]; large larvae (21-30 mm)) [B]	Mean survival, Medium larvae ([1]; medium larvae (11-20 mm)) [B]	Mean survival, Small larvae ([1]; small larvae (2-10 mm)) [B]	Mean survival, Large larvae (tropical sod webworms; Large sod webworm larvae) [B]	Mean survival, Medium larvae (tropical sod webworms; Medium sod webworm larvae) [B]	Mean survival, Small larvae (tropical sod webworms; Small sod webworm larvae) [B]	synergistic effect when mixed with embodiments of the invention [2]
CC1(C)C(C=C(Cl)Cl)C1C(=O)OC(C#N)c1ccc(F)c(Oc2ccccc2)c1 (stereo not shown) [Cyfluthrin]	0	0	0	0.3	0	0	–
N#Cc1c(Cl)c(Cl)c(Cl)c(C#N)c1Cl [chlorothalonil]	–	–	–	–	–	–	synergistic effect was not observed
